Reference: the supplement of paper PMC4977894
± gives the standard deviation of the averaged measurements.

Experiments:
[1] = system: Homo sapiens (human subject panel, olfactory perception); assay: perceived odor familiarity rating (rating 0-100); higher = more familiar
Summary of the method: (§1)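 Across ten visits of 100 stimuli, 55 healthy human subjects aged 18–50 sniffed 1 mL of each molecule in paraffin oil in randomized order, at both high and low concentrations. The six lowest performers were excluded. Whenever a subject reported smelling a stimulus, they rated it on a computerized slider that started at 50 and had to be moved, and positions were converted to a 0–100 scale. Each familiarity, intensity and pleasantness figure is a mean across subjects.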

[2] = system: Homo sapiens (human subject panel, olfactory perception); assay: perceived odor pleasantness rating (rating 0-100); higher = more pleasant
Summary of the method: as §1

[3] = system: Homo sapiens (human subject panel, olfactory perception); assay: perceived odor intensity rating (rating 0-100); higher = stronger perceived smell
Summary of the method: as §1

[4] = odor dilution in paraffin oil: 1/1,000
[5] = odor dilution in paraffin oil: 1/100,000
[6] = odor dilution in paraffin oil: 1/10,000,000
[7] = odor dilution in paraffin oil: 1/10

SMILES: CCOC(=O)c1ccccc1 [Ethyl benzoate]
- perceived odor familiarity rating [1, 4]: 50.5 ± 32
- perceived odor familiarity rating [1, 5]: 43.1 ± 30
- perceived odor pleasantness rating [2, 4]: 57.1 ± 25
- perceived odor pleasantness rating [2, 5]: 58.6 ± 24
- perceived odor intensity rating [3, 4]: 66.2 ± 24
- perceived odor intensity rating [3, 5]: 38.4 ± 33

SMILES: CCCC(O)CC (configuration not stated) [3-hexanol]
- perceived odor familiarity rating [1, 4]: 43.1 ± 31
- perceived odor familiarity rating [1, 5]: 28.1 ± 23
- perceived odor pleasantness rating [2, 4]: 35.1 ± 26
- perceived odor pleasantness rating [2, 5]: 49.1 ± 24
- perceived odor intensity rating [3, 4]: 71.3 ± 28
- perceived odor intensity rating [3, 5]: 29.7 ± 30

SMILES: Cc1nc(C)c(C)s1 [2,4,5-Trimethylthiazole]
- perceived odor familiarity rating [1, 5]: 48.4 ± 31
- perceived odor familiarity rating [1, 6]: 46.4 ± 31
- perceived odor pleasantness rating [2, 5]: 33.8 ± 26
- perceived odor pleasantness rating [2, 6]: 44.2 ± 27
- perceived odor intensity rating [3, 5]: 67.9 ± 26
- perceived odor intensity rating [3, 6]: 35.2 ± 31

SMILES: CCCC(=O)OCC(COC(=O)CCC)OC(=O)CCC [Tributyrin]
- perceived odor familiarity rating [1, 4]: 49.9 ± 30
- perceived odor familiarity rating [1, 5]: 36.9 ± 30
- perceived odor pleasantness rating [2, 4]: 22.2 ± 22
- perceived odor pleasantness rating [2, 5]: 39.5 ± 23
- perceived odor intensity rating [3, 4]: 68.8 ± 28
- perceived odor intensity rating [3, 5]: 31.9 ± 29

SMILES: O=C(O)/C=C/c1ccccc1 [trans-Cinnamic acid]
- perceived odor familiarity rating [1, 7]: 51.5 ± 31
- perceived odor familiarity rating [1, 4]: 46.5 ± 32
- perceived odor pleasantness rating [2, 7]: 52.7 ± 30
- perceived odor pleasantness rating [2, 4]: 28.4 ± 28
- perceived odor intensity rating [3, 7]: 72.3 ± 23
- perceived odor intensity rating [3, 4]: 59.5 ± 30

SMILES: CC(=O)c1nccs1 [2-Acetylthiazole]
- perceived odor familiarity rating [1, 4]: 69.3 ± 28
- perceived odor familiarity rating [1, 5]: 58.3 ± 31
- perceived odor pleasantness rating [2, 4]: 46.3 ± 31
- perceived odor pleasantness rating [2, 5]: 47.7 ± 30
- perceived odor intensity rating [3, 4]: 80 ± 20
- perceived odor intensity rating [3, 5]: 76.3 ± 17

SMILES: CCc1ccccc1 [ethylbenzene]
- perceived odor familiarity rating [1, 4]: 51.4 ± 30
- perceived odor familiarity rating [1, 5]: 37 ± 33
- perceived odor pleasantness rating [2, 4]: 35.2 ± 25
- perceived odor pleasantness rating [2, 5]: 50.4 ± 19
- perceived odor intensity rating [3, 4]: 75.5 ± 22
- perceived odor intensity rating [3, 5]: 23 ± 24

SMILES: O=C(O)CCC(=O)O [Succinic acid]
- perceived odor familiarity rating [1, 7]: 35.5 ± 25
- perceived odor familiarity rating [1, 4]: 35.5 ± 32
- perceived odor pleasantness rating [2, 7]: 34.6 ± 24
- perceived odor pleasantness rating [2, 4]: 36.1 ± 21
- perceived odor intensity rating [3, 7]: 46.2 ± 35
- perceived odor intensity rating [3, 4]: 32.3 ± 27

SMILES: CC(=O)c1c(C)c([N+](=O)[O-])c(C(C)(C)C)c([N+](=O)[O-])c1C [musk ketone]
- perceived odor familiarity rating [1, 7]: 53 ± 30
- perceived odor familiarity rating [1, 4]: 50.2 ± 27
- perceived odor pleasantness rating [2, 7]: 65.2 ± 23
- perceived odor pleasantness rating [2, 4]: 63.1 ± 25
- perceived odor intensity rating [3, 7]: 48.1 ± 34
- perceived odor intensity rating [3, 4]: 49.3 ± 32

SMILES: CCc1cnccn1 [2-ethyl pyrazine]
- perceived odor familiarity rating [1, 4]: 55.8 ± 34
- perceived odor familiarity rating [1, 5]: 34.8 ± 27
- perceived odor pleasantness rating [2, 4]: 37.2 ± 30
- perceived odor pleasantness rating [2, 5]: 47 ± 21
- perceived odor intensity rating [3, 4]: 80 ± 19
- perceived odor intensity rating [3, 5]: 31.4 ± 25

SMILES: CC1COC(c2ccccc2)O1 (configuration not stated) [Benzaldehyde propylene glycol acetal]
- perceived odor familiarity rating [1, 4]: 36.3 ± 27
- perceived odor familiarity rating [1, 5]: 34.2 ± 22
- perceived odor pleasantness rating [2, 4]: 45.5 ± 23
- perceived odor pleasantness rating [2, 5]: 47.2 ± 22
- perceived odor intensity rating [3, 4]: 50.5 ± 29
- perceived odor intensity rating [3, 5]: 28.8 ± 32

SMILES: COC(=O)Cc1ccccc1 [Methyl phenylacetate]
- perceived odor familiarity rating [1, 4]: 54 ± 30
- perceived odor familiarity rating [1, 5]: 49.6 ± 30
- perceived odor pleasantness rating [2, 4]: 42.9 ± 30
- perceived odor pleasantness rating [2, 5]: 42.3 ± 28
- perceived odor intensity rating [3, 4]: 69.1 ± 25
- perceived odor intensity rating [3, 5]: 58.1 ± 30

SMILES: C=CCCCCCCCCC(=O)OCCCC [Butyl 10-undecenoate]
- perceived odor familiarity rating [1, 7]: 50 ± 30
- perceived odor familiarity rating [1, 4]: 44.4 ± 32
- perceived odor pleasantness rating [2, 7]: 35.1 ± 27
- perceived odor pleasantness rating [2, 4]: 42.2 ± 19
- perceived odor intensity rating [3, 7]: 58.1 ± 30
- perceived odor intensity rating [3, 4]: 31.9 ± 33

SMILES: COc1ccccc1C=O [o-Anisaldehyde]
- perceived odor familiarity rating [1, 4]: 45.8 ± 27
- perceived odor familiarity rating [1, 5]: 41.2 ± 27
- perceived odor pleasantness rating [2, 4]: 32 ± 22
- perceived odor pleasantness rating [2, 5]: 38 ± 22
- perceived odor intensity rating [3, 4]: 70 ± 25
- perceived odor intensity rating [3, 5]: 38.5 ± 27

SMILES: CCC(C)C1CCCCC1=O (configuration not stated) [2-sec-Butylcyclohexanone]
- perceived odor familiarity rating [1, 7]: 58.9 ± 32
- perceived odor familiarity rating [1, 4]: 44.6 ± 32
- perceived odor pleasantness rating [2, 7]: 49.3 ± 29
- perceived odor pleasantness rating [2, 4]: 51 ± 24
- perceived odor intensity rating [3, 7]: 81.9 ± 17
- perceived odor intensity rating [3, 4]: 56.8 ± 28

SMILES: CC(C)CC(=O)O [isovaleric acid]
- perceived odor familiarity rating [1, 5]: 54.3 ± 33
- perceived odor familiarity rating [1, 6]: 48 ± 31
- perceived odor pleasantness rating [2, 5]: 12.9 ± 19
- perceived odor pleasantness rating [2, 6]: 20.7 ± 22
- perceived odor intensity rating [3, 5]: 82 ± 20
- perceived odor intensity rating [3, 6]: 58.5 ± 30

SMILES: CCCCCC(=O)OCC [ethyl hexanoate]
- perceived odor familiarity rating [1, 4]: 69.4 ± 27
- perceived odor familiarity rating [1, 5]: 56.4 ± 29
- perceived odor pleasantness rating [2, 4]: 78.6 ± 19
- perceived odor pleasantness rating [2, 5]: 71.6 ± 16
- perceived odor intensity rating [3, 4]: 73.9 ± 20
- perceived odor intensity rating [3, 5]: 53.3 ± 28

SMILES: CCCCCCCCC(=O)OC [Methyl nonanoate]
- perceived odor familiarity rating [1, 4]: 50.8 ± 30
- perceived odor familiarity rating [1, 5]: 45.9 ± 30
- perceived odor pleasantness rating [2, 4]: 57.8 ± 26
- perceived odor pleasantness rating [2, 5]: 57.9 ± 24
- perceived odor intensity rating [3, 4]: 57 ± 28
- perceived odor intensity rating [3, 5]: 28.8 ± 30

SMILES: COc1nccnc1C [2-Methoxy-3-methylpyrazine]
- perceived odor familiarity rating [1, 4]: 63 ± 31
- perceived odor familiarity rating [1, 5]: 64.6 ± 31
- perceived odor pleasantness rating [2, 4]: 34.3 ± 34
- perceived odor pleasantness rating [2, 5]: 52.6 ± 31
- perceived odor intensity rating [3, 4]: 87.9 ± 13
- perceived odor intensity rating [3, 5]: 79.5 ± 17

SMILES: CCCCCC(O)CC (configuration not stated) [3-Octanol]
- perceived odor familiarity rating [1, 4]: 45.5 ± 29
- perceived odor familiarity rating [1, 5]: 35.9 ± 28
- perceived odor pleasantness rating [2, 4]: 38.2 ± 25
- perceived odor pleasantness rating [2, 5]: 49.5 ± 18
- perceived odor intensity rating [3, 4]: 72 ± 23
- perceived odor intensity rating [3, 5]: 26.9 ± 25

SMILES: CC(=O)OCCC1=CCC2CC1C2(C)C (configuration not stated) [Nopol acetate]
- perceived odor familiarity rating [1, 4]: 54.9 ± 30
- perceived odor familiarity rating [1, 5]: 52.7 ± 31
- perceived odor pleasantness rating [2, 4]: 70.6 ± 21
- perceived odor pleasantness rating [2, 5]: 66.6 ± 25
- perceived odor intensity rating [3, 4]: 53.6 ± 29
- perceived odor intensity rating [3, 5]: 40.7 ± 28

SMILES: COc1cc(C(=O)O)ccc1O [4-hydroxy-3-methoxybenzoic acid]
- perceived odor familiarity rating [1, 7]: 51.9 ± 29
- perceived odor familiarity rating [1, 4]: 45.4 ± 24
- perceived odor pleasantness rating [2, 7]: 54.7 ± 28
- perceived odor pleasantness rating [2, 4]: 44.1 ± 23
- perceived odor intensity rating [3, 7]: 65.3 ± 26
- perceived odor intensity rating [3, 4]: 28.8 ± 29

SMILES: CC(C)c1ccccc1O [2-Isopropylphenol]
- perceived odor familiarity rating [1, 4]: 49 ± 34
- perceived odor familiarity rating [1, 5]: 36 ± 29
- perceived odor pleasantness rating [2, 4]: 28.8 ± 22
- perceived odor pleasantness rating [2, 5]: 44.4 ± 20
- perceived odor intensity rating [3, 4]: 84.3 ± 14
- perceived odor intensity rating [3, 5]: 38.8 ± 30

SMILES: COC(C)=O [methyl acetate]
- perceived odor familiarity rating [1, 7]: 57.2 ± 28
- perceived odor familiarity rating [1, 4]: 29.6 ± 31
- perceived odor pleasantness rating [2, 7]: 26.9 ± 20
- perceived odor pleasantness rating [2, 4]: 36.4 ± 19
- perceived odor intensity rating [3, 7]: 66.2 ± 28
- perceived odor intensity rating [3, 4]: 23.9 ± 29

SMILES: C/C=C/c1ccc2c(c1)OCO2 [Isosafrole]
- perceived odor familiarity rating [1, 4]: 56.4 ± 30
- perceived odor familiarity rating [1, 5]: 29 ± 28
- perceived odor pleasantness rating [2, 4]: 59.6 ± 24
- perceived odor pleasantness rating [2, 5]: 54.6 ± 18
- perceived odor intensity rating [3, 4]: 44.7 ± 30
- perceived odor intensity rating [3, 5]: 14.4 ± 15

SMILES: OCCCCCc1ccccc1 [5-Phenyl-1-pentanol]
- perceived odor familiarity rating [1, 4]: 49.2 ± 29
- perceived odor familiarity rating [1, 5]: 34.5 ± 32
- perceived odor pleasantness rating [2, 4]: 53.6 ± 22
- perceived odor pleasantness rating [2, 5]: 56.8 ± 23
- perceived odor intensity rating [3, 4]: 53.4 ± 30
- perceived odor intensity rating [3, 5]: 17.2 ± 22

SMILES: SCCCCCCS [1,6-Hexanedithiol]
- perceived odor familiarity rating [1, 5]: 51.5 ± 33
- perceived odor familiarity rating [1, 6]: 36.8 ± 29
- perceived odor pleasantness rating [2, 5]: 24.9 ± 26
- perceived odor pleasantness rating [2, 6]: 40.1 ± 25
- perceived odor intensity rating [3, 5]: 74.8 ± 24
- perceived odor intensity rating [3, 6]: 33.8 ± 34
